Paper PMC6001375, “CLERK is a novel receptor kinase required for sensing of root-active CLE peptides in Arabidopsis” (Development (Cambridge, England), 2018)
Where no end group is shown, it is not given here. [ ]: non-standard residue; d: D form. Hyp = O=C(O)[C@@H]1C[C@@H](O)CN1

Legend:
[1] = tested on: CLAVATA 1 (CLV1); conditions: ref Brand et al., 2000; Clark et al., 1995; Fletcher et al., 1999; cited from earlier work
Source text: (§1) The endogenous CLAVATA3/EMBRYO SURROUNDING REGION (CLE) peptides of plants are secreted as propeptides and processed to yield bioactive 12-14 amino acid long ligands ([Cock and McCormick, 2001]; [Ito et al., 2006]; [Kondo et al., 2006]). The Arabidopsis thaliana genome contains 32 CLE genes, which encode 27 distinct CLE peptides ([Goad et al., 2016]; [Ito et al., 2006]; [Strabala et al., 2006]). Exogenous application of chemically synthesized CLE peptides at nanomolar concentrations frequently suppresses Arabidopsis root growth in tissue culture ([Depuydt et al., 2013]; [Fiers et al., 2005]; [ ...

[2] = tested on: SERKs with PXY; conditions: ref Hazak et al., 2017; Santiago et al., 2016; Zhang et al., 2016a,b; cited from earlier work
Source text: In numerous cases, ligand sensing by LRR-RKs requires interaction with co-receptor kinases ([Brandt and Hothorn, 2016]; [Hazak and Hardtke, 2016]; [Katsir et al., 2011]; [Li and Tax, 2013]). […] SERKs have also been implicated in PXY-mediated CLE41/44 signaling, although binding of PXY-CLE41/44 to ...

[3] = tested on: PHLOEM INTERCALATED WITH XYLEM (PXY); conditions: ref Etchells and Turner, 2010; Fisher and Turner, 2007; Hirakawa et al., 2008; Morita et al., 2016; cited from earlier work
Source text: as §1

[4] = tested on: PXY ectodomain with CLERK/At5g63710 ectodomains; assay: Analytical size-exclusion chromatography, PXY + CLERK/At5g63710 ectodomains; format: binding, Arabidopsis thaliana; conditions: 50 µM peptide
Description: (§2) Isolation of recombinant proteins and analytical gel filtrations were carried out as described previously ([Hazak et al., 2017]) with small adjustments. The coding sequences for BAM1-ECD (amino acids 20-637), BAM3-ECD (30-651), PXY-ECD (30-647), NIK1-ECD (32-248), NIK2-ECD (33-248), NIK3-ECD (26-238), CLERK-ECD (28-236) and At5G63710-ECD (51-224) were amplified from Arabidopsis thaliana cDNA using PfuX7 polymerase. All ECD-coding sequences were then cloned into a modified pFAST-BAC1 vector (Geneva Biotech) by GIBSON cloning, resulting in the addition of the azurocidin signal peptide sequence to the 5′-end, and of a 2×-STREP-9×HIS tag to the 3′-end of the ECD sequences. These plasmids, after being confirmed by sequencing, were transformed into Escherichia coli DH10MultiBac (Geneva Biotech) followed by the extraction of the resulting bacmids. Transfection of the bacmids into Spodoptera frugiperda Sf9 cells with Profectin (AB Vector) was carried out to produce and amplify the respective virus. Recombinant secreted expression of the proteins was carried out by addition of virus to Trichoplusia ni Tnao38 cells to reach a viral multiplicity of 1 and incubation of the cells for 3 days. […] Concentrations of the pure proteins were assessed by measuring their absorbance at 280 nm (NanoDrop Lite; Thermo Scientific) and subsequent correction with their respective extinction coefficient. […]

[5] = tested on: PXY ectodomain with NIK1/2/3 ectodomains; assay: Analytical size-exclusion chromatography, PXY + NIK1/2/3 ectodomains; format: binding, Arabidopsis thaliana; conditions: Fig. S3F; 50 µM peptide; pH 5.0
Description: as §2

[6] = target: T1, BARELY ANY MERISTEM 1 (BAM1) ectodomain (Arabidopsis thaliana, UniProt O49545 20-637); assay: ITC; Nano ITC, 25°C, 20 mM citrate (pH 5.0), 150 mM NaCl; peptide in the syringe, ectodomain in the cell: 400 µM CLE26 or CLE45 into 30 µM CLERK-ECD; 80 µM CLE9 into 13.8 µM BAM1-ECD; conditions: both partners purified
T1 construct: BAM1, LRR receptor kinase of Arabidopsis thaliana, extracellular domain, amino acids 20-637; The azurocidin signal peptide was added at the N-terminus for secretion; also called BAM1-ECD
T1 sequence (looked up): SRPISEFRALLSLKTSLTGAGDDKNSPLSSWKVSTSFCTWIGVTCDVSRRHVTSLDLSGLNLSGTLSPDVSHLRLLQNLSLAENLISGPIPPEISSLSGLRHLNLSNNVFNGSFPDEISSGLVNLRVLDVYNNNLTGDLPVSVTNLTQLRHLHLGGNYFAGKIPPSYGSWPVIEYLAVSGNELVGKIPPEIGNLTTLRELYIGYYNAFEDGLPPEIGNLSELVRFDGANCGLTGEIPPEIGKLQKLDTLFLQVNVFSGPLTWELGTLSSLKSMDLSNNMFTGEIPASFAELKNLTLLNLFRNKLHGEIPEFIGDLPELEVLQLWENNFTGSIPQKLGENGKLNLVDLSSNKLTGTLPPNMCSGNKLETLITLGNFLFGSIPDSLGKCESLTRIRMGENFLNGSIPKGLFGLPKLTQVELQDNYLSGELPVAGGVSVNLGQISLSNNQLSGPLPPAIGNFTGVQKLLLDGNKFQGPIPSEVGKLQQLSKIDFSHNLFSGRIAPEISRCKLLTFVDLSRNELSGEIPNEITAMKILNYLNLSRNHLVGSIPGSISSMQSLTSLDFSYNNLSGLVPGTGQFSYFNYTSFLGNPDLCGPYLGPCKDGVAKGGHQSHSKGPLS

[7] = target: T2, BARELY ANY MERISTEM 1 (BAM1) ectodomain (Arabidopsis thaliana, UniProt O49545 20-637); assay: ITC
T2 chain: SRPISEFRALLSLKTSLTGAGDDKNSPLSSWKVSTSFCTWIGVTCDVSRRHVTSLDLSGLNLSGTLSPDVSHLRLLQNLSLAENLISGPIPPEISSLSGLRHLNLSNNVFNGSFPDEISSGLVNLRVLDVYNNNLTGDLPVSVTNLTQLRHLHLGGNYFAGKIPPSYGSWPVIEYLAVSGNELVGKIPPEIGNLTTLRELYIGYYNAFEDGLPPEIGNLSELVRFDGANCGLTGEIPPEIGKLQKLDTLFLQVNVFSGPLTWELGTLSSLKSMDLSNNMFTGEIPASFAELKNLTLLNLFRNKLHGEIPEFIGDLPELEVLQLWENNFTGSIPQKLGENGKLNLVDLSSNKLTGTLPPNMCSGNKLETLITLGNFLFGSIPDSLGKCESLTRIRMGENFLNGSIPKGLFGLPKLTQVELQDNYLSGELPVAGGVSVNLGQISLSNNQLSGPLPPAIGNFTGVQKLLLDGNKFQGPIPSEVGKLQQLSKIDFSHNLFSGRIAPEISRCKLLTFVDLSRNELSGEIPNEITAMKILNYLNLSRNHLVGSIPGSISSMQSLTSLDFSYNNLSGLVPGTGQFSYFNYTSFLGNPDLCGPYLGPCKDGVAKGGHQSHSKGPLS

In the case of “CLV3: prototypical CLV3 peptide, directly bound by CLV1 to regulate stem cell homeostasis in shoot meristems (RTVPSGPDPLHHH; not fully specified; ends and bridges not checked; UniProt Q9XF04 70-82, looked up)”, the “Binding to CLV1” value [1] is listed as “directly binds”.

For “HEVPSGPNPISN [CLE41, identical CLE41 and CLE44 peptides, perceived by PXY]”, the “Binding of PXY-CLE41/44 to SERKs” value [2] is given as “comparatively weak”, the “Perception by PXY” value [3] is given as “perceives” and the “Elution of PXY ectodomain with CLERK/At5g63710 ectodomains” value ([4]; Fig. S3C, pH 5.0) is given as “elute as monomers”. The “Peptide-dependent binding of CLERK ectodomain to PXY ectodomain” value ([4]; gel filtration, 20 mM citrate (pH 5.0), 150 mM NaCl) was “Neither did CLERK ectodomain bind to the BAM1 ectodomain or the PXY ectodomain” and the “Elution of PXY ectodomain with NIK1/2/3 ectodomains” value [5] was “elute as monomers”.

B1: CLE9 peptide (peptide)
peptide: RLV[Hyp]SG[Hyp]NPLHN
notes: CLE9 peptide of Arabidopsis thaliana, 12 residues; source: synthetic peptide (PSL GmbH)
For B1, the binding result [6] was “binds” and the Kd [7] was 12.7 nM.
